Laboratory results taken from US9242987B2, “Heterocyclyl pyrazolopyrimidine analogues as JAK inhibitors” (Cellzome Limited, priority 2009, dated 2016).

Columns and labels:
JAK2 = molecular target: T1, JAK2 (Homo sapiens, UniProt O60674); test: Kinobeads assay, JAK2; format: binding; conditions: mixed Molt4/Ramos cell lysate, dot blot detection
T1 construct: endogenous in cells; host or cells: Mixed Molt4/Ramos lysate (1:2)
How it was run: (§1)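 Competition pulldown: compound dilution series incubated 3 h in cold room with immobilized aminopyrido-pyrimidine beads and mixed Molt4/Ramos lysate (1:2, 10 mg/mL protein) in DP buffer pH 7.4 with NP40. Bead-bound JAK2/JAK3 eluted, quantified by antibody dot blot with infrared detection; IC50 from dose-response curves.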

JAK3 = molecular target: T2, JAK3 (Homo sapiens, UniProt P52333); test: Kinobeads assay, JAK3; format: binding; conditions: mixed Molt4/Ramos cell lysate, dot blot detection
T2 construct: endogenous in cells; host or cells: Mixed Molt4/Ramos lysate (1:2)
T2 sequence (P52333 1-1124): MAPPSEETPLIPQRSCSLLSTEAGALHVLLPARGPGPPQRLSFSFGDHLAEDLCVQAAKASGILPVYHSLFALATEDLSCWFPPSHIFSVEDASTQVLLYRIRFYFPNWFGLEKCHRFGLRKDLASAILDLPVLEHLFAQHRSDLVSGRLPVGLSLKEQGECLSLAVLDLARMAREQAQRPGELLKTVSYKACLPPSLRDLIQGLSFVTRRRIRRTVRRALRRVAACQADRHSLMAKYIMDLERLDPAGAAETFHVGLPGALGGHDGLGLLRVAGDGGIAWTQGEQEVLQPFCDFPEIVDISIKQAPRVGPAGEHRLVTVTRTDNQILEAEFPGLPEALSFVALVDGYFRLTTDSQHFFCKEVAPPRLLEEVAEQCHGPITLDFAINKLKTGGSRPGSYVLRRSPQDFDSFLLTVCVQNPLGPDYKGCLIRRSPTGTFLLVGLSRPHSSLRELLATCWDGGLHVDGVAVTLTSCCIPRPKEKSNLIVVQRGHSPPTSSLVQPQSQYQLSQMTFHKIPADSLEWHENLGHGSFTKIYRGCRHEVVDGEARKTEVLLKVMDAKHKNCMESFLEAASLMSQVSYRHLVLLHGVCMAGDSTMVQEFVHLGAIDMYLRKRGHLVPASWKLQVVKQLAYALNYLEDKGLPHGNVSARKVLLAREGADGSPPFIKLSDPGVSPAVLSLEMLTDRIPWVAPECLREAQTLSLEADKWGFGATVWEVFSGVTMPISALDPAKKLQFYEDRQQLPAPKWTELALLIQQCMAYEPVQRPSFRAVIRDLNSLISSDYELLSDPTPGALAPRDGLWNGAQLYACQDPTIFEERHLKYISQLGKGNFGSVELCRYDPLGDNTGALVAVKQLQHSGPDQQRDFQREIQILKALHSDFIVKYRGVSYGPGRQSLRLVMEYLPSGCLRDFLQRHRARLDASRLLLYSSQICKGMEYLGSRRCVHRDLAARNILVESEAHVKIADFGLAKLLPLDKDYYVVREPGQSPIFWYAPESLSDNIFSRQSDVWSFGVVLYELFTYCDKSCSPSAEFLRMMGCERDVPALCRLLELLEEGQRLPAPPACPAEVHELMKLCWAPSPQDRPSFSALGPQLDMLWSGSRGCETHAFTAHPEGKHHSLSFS
How it was run: as §1

T1 sequence (O60674 whole entry): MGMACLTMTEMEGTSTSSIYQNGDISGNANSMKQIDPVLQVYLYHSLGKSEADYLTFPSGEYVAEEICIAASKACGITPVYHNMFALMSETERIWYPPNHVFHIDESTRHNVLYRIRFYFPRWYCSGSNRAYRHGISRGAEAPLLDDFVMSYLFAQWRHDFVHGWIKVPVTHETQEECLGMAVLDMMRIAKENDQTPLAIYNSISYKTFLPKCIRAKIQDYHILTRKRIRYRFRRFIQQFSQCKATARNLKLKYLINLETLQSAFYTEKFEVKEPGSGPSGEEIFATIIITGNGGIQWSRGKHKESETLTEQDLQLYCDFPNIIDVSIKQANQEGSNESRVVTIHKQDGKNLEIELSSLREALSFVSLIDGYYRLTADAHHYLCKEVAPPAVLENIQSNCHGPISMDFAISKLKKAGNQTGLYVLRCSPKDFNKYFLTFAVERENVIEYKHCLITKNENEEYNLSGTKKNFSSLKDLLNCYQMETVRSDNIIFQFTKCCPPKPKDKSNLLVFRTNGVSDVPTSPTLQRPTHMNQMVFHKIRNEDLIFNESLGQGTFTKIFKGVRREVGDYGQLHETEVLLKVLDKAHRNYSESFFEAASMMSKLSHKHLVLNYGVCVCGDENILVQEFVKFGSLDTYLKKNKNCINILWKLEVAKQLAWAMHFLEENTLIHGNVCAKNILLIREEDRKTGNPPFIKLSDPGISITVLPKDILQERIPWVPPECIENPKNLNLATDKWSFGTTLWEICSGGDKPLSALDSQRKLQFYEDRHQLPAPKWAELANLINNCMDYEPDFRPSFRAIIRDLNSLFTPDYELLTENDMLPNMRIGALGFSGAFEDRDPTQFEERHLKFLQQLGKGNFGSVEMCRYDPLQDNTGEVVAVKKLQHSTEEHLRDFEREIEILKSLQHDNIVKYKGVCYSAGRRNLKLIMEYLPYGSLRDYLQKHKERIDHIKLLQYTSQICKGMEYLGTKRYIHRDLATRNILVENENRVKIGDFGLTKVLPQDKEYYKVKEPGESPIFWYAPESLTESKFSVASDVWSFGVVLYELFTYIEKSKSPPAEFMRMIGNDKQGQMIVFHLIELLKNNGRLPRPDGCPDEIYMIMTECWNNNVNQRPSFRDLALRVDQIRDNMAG

SMILES | IC50 (JAK2) | IC50 (JAK3)
Cc1nn(CCO)cc1Nc1ncc2cnn(Cc3ccccc3)c2n1 [Example 113, 2-(4-((1-Benzyl-1H-pyrazolo[3,4-d]pyrimidin-6-yl)amino)-3-methyl-1H-pyrazol-1-yl)ethanol] | 1000 to 10000 nM | < 100 nM
COc1nn(C)cc1Nc1ncc2cnn(Cc3ccccc3)c2n1 [Example 105, 1-Benzyl-N-(3-methoxy-1-methyl-1H-pyrazol-4-yl)-1H-pyrazolo[3,4-d]pyrimidin-6-amine] | ≥ 10000 nM | < 100 nM
Cn1cc(Nc2ncc3cnn(-c4ccc(S(=O)(=O)NCCO)cc4)c3n2)cn1 [Example 139, N-(2-Hydroxyethyl)-4-(6-((1-methyl-1H-pyrazol-4-yl)amino)-1H-pyrazolo[3,4-d]pyrimidin-1-yl)benzenesulfonamide] | 1000 to 10000 nM | 100 to 1000 nM
COc1cc(-n2ncc3cnc(Nc4cnn(C)c4)nc32)ccc1F [Example 58, 1-(4-Fluoro-3-methoxyphenyl)-N-(1-methyl-1H-pyrazol-4-yl)-1H-pyrazolo[3,4-d]pyrimidin-6-amine] | ≥ 10000 nM | 100 to 1000 nM
Cn1cc(Nc2ncc3cnn(-c4ccc(NS(C)(=O)=O)cn4)c3n2)cn1 [Example 54, N-(6-(6-(1-Methyl-1H-pyrazol-4-ylamino)-1H-pyrazolo[3,4-d]pyrimidin-1-yl)pyridin-3-yl)methanesulfonamide] | 1000 to 10000 nM | 100 to 1000 nM

The remaining lines, values ahead:

IC50 (JAK2) | IC50 (JAK3) | SMILES
< 100 nM | < 100 nM | Cn1cc(Nc2ncc3cnn(Cc4cc(F)ccc4C(N)=O)c3n2)cn1 [Example 53, 4-Fluoro-2-((6-(1-methyl-1H-pyrazol-4-ylamino)-1H-pyrazolo[3,4-d]pyrimidin-1-yl)methyl)benzamide]
1000 to 10000 nM | 100 to 1000 nM | Cc1c(F)cccc1Cn1ncc2cnc(Nc3cnn(CC(F)F)c3)nc21 [Example 154, N-(1-(2,2-Difluoroethyl)-1H-pyrazol-4-yl)-1-(3-fluoro-2-methylbenzyl)-1H-pyrazolo[3,4-d]pyrimidin-6-amine]
< 100 nM | < 100 nM | Cn1cc(Nc2ncc3cnn(Cc4cc(F)ccc4C#N)c3n2)cn1 [Example 52, 4-Fluoro-2-((6-(1-methyl-1H-pyrazol-4-ylamino)-1H-pyrazolo[3,4-d]pyrimidin-1-yl)methyl)benzonitrile]
1000 to 10000 nM | < 100 nM | Cc1cccc(Cn2ncc3cnc(Nc4cnn(C)c4)nc32)c1 [Example 83, N-(1-Methyl-1H-pyrazol-4-yl)-1-(3-methylbenzyl)-1H-pyrazolo[3,4-d]pyrimidin-6-amine]
≥ 10000 nM | 100 to 1000 nM | Cn1cc(Nc2ncc3cnn(Cc4cccc(N5CCCC5)n4)c3n2)cn1 [Example 188, N-(1-Methyl-1H-pyrazol-4-yl)-1-((6-(pyrrolidin-1-yl)pyridin-2-yl)methyl)-1H-pyrazolo[3,4-d]pyrimidin-6-amine]
1000 to 10000 nM | < 100 nM | Cn1cc(Nc2ncc3cnn(Cc4ccccc4F)c3n2)cn1 [Example 2, 1-(2-Fluorobenzyl)-N-(1-methyl-1H-pyrazol-4-yl)-1H-pyrazolo[3,4-d]pyrimidin-6-amine]
100 to 1000 nM | < 100 nM | OCCn1cc(Nc2ncc3cnn(Cc4cccc(F)c4F)c3n2)cn1 [Example 33, 2-(4-(1-(2,3-Difluorobenzyl)-1H-pyrazolo[3,4-d]pyrimidin-6-ylamino)-1H-pyrazol-1-yl)ethanol]
